Source: patent publication US20080221134A1, “8-ALKYNYLXANTHINES AND DERIVATIVES” (priority 2006, published 2008)

Columns and labels:
Rat A1 AR = biological target: T1, Rat A1 AR (Rattus norvegicus, UniProt P25099); assay: Radioligand binding assay 1, rat A1 adenosine receptor; conditions: rat cortex, [3H]CCPA
T1 construct: Rat brain preparations were used for A1- and A2A adenosine receptor (AR); from tissue; host or cells: rat cortex
T1 sequence (P25099 1-326): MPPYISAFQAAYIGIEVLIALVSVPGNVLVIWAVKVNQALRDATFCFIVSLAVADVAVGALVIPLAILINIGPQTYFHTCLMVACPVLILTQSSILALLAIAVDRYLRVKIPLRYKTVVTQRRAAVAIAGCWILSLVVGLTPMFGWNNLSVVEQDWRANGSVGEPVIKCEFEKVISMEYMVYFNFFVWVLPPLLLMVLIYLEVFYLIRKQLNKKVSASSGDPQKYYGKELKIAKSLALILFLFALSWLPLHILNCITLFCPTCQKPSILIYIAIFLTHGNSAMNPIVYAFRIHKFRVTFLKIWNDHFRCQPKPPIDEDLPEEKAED
Method: (§1) Rat brain preparations were used for A1- and A2A adenosine receptor (AR) and human recombinant cell samples for A1-, A2A- and A3 adenosine receptor radioligand binding studies. Affinity and selectivity was tested in displacement experiments with following radioligands: [^3H]CCPA for A1-adenosine receptors, [^3H]MSX-2 for A2A-receptors and [^3H]PSB-11 for A3-receptors. Results of these experiments are depicted in table 2b (human data) and table 2a (rat data). Radioligand binding test systems are e.g. generally described by Muller et al., Curr. Pharm. Des., 1996, 2, 501 and Weyler et al., ChemMedChem 2006, 1, 891 and references cited therein) These documents are incorporated herein by reference.

Rat A2A AR = biological target: T2, Rat A2A AR (Rattus norvegicus, UniProt P30543); assay: Radioligand binding assay 1, rat A2A adenosine receptor; conditions: rat striatum, [3H]MSX-2
T2 construct: A2A adenosine receptors from rat striatum; from tissue; host or cells: rat striatum
Method: as §1

T2 sequence (P30543 whole entry): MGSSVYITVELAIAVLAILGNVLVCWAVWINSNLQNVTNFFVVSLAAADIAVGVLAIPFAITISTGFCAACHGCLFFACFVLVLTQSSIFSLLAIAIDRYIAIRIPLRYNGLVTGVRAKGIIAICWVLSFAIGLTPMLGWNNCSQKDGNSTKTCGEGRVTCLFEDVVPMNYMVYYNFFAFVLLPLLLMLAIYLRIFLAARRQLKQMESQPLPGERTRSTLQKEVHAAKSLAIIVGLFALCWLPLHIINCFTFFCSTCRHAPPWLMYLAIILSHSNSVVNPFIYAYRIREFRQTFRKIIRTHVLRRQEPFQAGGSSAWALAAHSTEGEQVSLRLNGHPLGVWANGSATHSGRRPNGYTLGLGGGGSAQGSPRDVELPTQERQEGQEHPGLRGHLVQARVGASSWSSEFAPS

| SMILES | Ki (Rat A1 AR) | Ki (Rat A2A AR) |
| --- | --- | --- |
| C#CCn1c(=O)c2c(nc(C#Cc3ccccc3OC)n2C)n(C)c1=O | > 10000 nM | > 10000 nM |
| C#CCn1c(=O)c2c(nc(C#Cc3cc(C)c(C)cc3C)n2C)n(C)c1=O | > 10000 nM | 4340 ± 840 nM |
| C#CCn1c(=O)c2c(nc(C#Cc3cc(OC)cc(OC)c3)n2C)n(C)c1=O | > 10000 nM | 190 ± 50 nM |
| C#CCn1c(=O)c2c(nc(C#Cc3ccc(OC)cc3)n2C)n(C)c1=O | > 10000 nM | 123 ± 38 nM |
| C#CCn1c(=O)c2c(nc(C#Cc3ccc(C)cc3)n2C)n(C)c1=O | > 10000 nM | 151 ± 8.4 nM |
| C#CCn1c(=O)c2c(nc(C#Cc3cccc(F)c3)n2C)n(C)c1=O | > 10000 nM | 466 ± 36 nM |
| C#CCn1c(=O)c2c(nc(C#Cc3cccc(OCC)c3)n2C)n(C)c1=O | ~10000 nM | 174 ± 42 nM |
| C#CCn1c(=O)c2c(nc(C#Cc3ccc(OCC)c(OCC)c3)n2C)n(C)c1=O | > 1000 nM | 951 ± 224 nM |
| C#CCn1c(=O)c2c(nc(C#Cc3cccc(OCC=C)c3)n2C)n(C)c1=O | ≥ 10000 nM | 152 ± 63 nM |
| C#CCn1c(=O)c2c(nc(C#Cc3ccc(F)c(OC)c3)n2C)n(C)c1=O | > 1000 nM | 70.3 ± 5.39 nM |
| C#CCn1c(=O)c2c(nc(C#Cc3cccc(OC)c3)n2CC#CC)n(C)c1=O | 96 ± 16.4 nM | 36.2 ± 4.5 nM |
| C#CCn1c(=O)c2c(nc(C#Cc3cccc(OC)c3)n2CC#N)n(C)c1=O | > 1000 nM | 56.2 ± 12.9 nM |
| C#CCn1c(=O)c2c(nc(C#Cc3ccc(OC)c(F)c3)n2C)n(C)c1=O | > 1000 nM | 194 ± 39 nM |
| C#Cn1c(=O)c2c(nc(C#Cc3ccc(Cl)c(Cl)c3)n2C)n(C)c1=O | > 1000 nM | > 1000 nM |
| C#CCn1c(=O)[nH]c2nc(C#Cc3cccc(OC)c3)n(C)c2c1=O | > 1000 nM | 135 ± 28 nM |
| C#CCn1c(=O)c2c(nc(C#Cc3cccc(OC)c3)n2C)n(CC#C)c1=O | > 10000 nM | 80.7 ± 21.1 nM |
| C#CCn1c(=O)c2c(nc(C#Cc3cccc(OC)c3)n2C)n(CCBr)c1=O | > 1000 nM | 90 ± 25 nM |
| C#CCn1c(=O)c2c(nc(C#Cc3cccc(OC)c3)n2C)n(CC2CO2)c1=O (centres unmarked) | > 1000 nM | 38.2 ± 12 nM |
| C#CCn1c(=O)c2c(nc(C#Cc3ccc(OC)c(OC)c3)n2C)n(CC(=O)O)c1=O | > 1000 nM | 272 ± 57 nM |
| C#CCn1c(=O)c2c(nc(C#Cc3ccc(OC)c(OC)c3)n2C)n(CC(=O)OCC)c1=O | ≥ 1000 nM | 167 ± 82 nM |

| SMILES | Ki (Rat A1 AR) | Ki (Rat A2A AR) |
| --- | --- | --- |
| C#CCn1c(=O)c2c(nc(C#Cc3ccc(OC)c(OC)c3)n2C)n(CC(=O)CC)c1=O | > 1000 nM | 91.7 ± 38.3 nM |
| C#CCn1c(=O)c2c(nc(C#Cc3ccc(OC)c(OC)c3)n2C)n(CCC(=O)CC)c1=O | 111 ± 26 nM | 103 ± 15 nM |
| C#CCn1c(=O)c2c(nc(C#Cc3ccc(OC)c(OC)c3)n2C)n(CC=C)c1=O | > 1000 nM | 9.5 ± 1.6 nM |
| C#CCn1c(=O)c2c(nc(C#Cc3ccc(OC)c(OC)c3)n2C)n(C[C@H](C)CO)c1=O | 146 ± 46 nM | 1.83 ± 0.38 nM |
| C#CCn1c(=O)c2c(nc(C#Cc3ccc(OC)c(OC)c3)n2C)n(Cc2ccsc2)c1=O | > 1000 nM | 28 ± 4.2 nM |
| C#CCn1c(=O)c2c(nc(C#Cc3ccc(OC)c(OC)c3)n2C)n(CCC(F)(F)F)c1=O | 234 ± 47 nM | 24.2 ± 3.8 nM |
| C#CCn1c(=O)c2c(nc(C#Cc3ccc(OC)c(OC)c3)n2C)n(CCCCF)c1=O | 209 ± 42 nM | 11.7 ± 1.7 nM |
| C#CCn1c(=O)c2c(nc(C#Cc3ccc(OC)c(OC)c3)n2C)n(CCC=C)c1=O | 176 ± 59 nM | 34.9 ± 6.9 nM |
| C#CCn1c(=O)c2c(nc(C#Cc3ccc(OC)c(OC)c3)n2C)n(CC(=C)C)c1=O | > 1000 nM | 28.6 ± 9.7 nM |
| C#CCn1c(=O)c2c(nc(C#Cc3ccc(OC)c(OC)c3)n2C)n(CCOCC)c1=O | > 1000 nM | 35.6 ± 14.1 nM |
| C#CCn1c(=O)c2c(nc(C#Cc3cccc(Cl)c3)n2C)n(CC)c1=O | 488 ± 253 nM | 141 ± 28 nM |
| CCn1c(=O)n(Cc2ccco2)c(=O)c2c1nc(C#Cc1ccc(OC)c(OC)c1)n2C | 208 ± 54 nM | 90.9 ± 7 nM |
| CCn1c(=O)n(Cc2ccoc2)c(=O)c2c1nc(C#Cc1ccc(OC)c(OC)c1)n2C | 1250 ± 106 nM | 90.7 ± 11.2 nM |
| C#CCn1c(=O)c2c(nc(C#Cc3ccc(OC)c(OC)c3)n2C)n(Cc2ccno2)c1=O | > 1000 nM | 17.9 ± 5.5 nM |
| C#CCn1c(=O)c2c(nc(C#Cc3ccc4c(c3)OCO4)n2C)n(CC)c1=O | > 1000 nM | 29.6 ± 6.1 nM |
| C#CCn1c(=O)c2c(nc(C#Cc3ccc(OC)c(OC)c3)n2C)n(CC(F)(F)F)c1=O | ≥ 1000 nM | 12.7 ± 2.8 nM |
| C#CCn1c(=O)c2c(nc(C#Cc3ccc(OC)c(F)c3)n2C)n(CC)c1=O | ≥ 1000 nM | 52.6 ± 19.5 nM |
| C#CCn1c(=O)c2c(nc(C#Cc3ccc(OC)cc3)n2C)n(CC)c1=O | > 1000 nM | 28.6 ± 13.3 nM |
| C#CCn1c(=O)c2c(nc(C#Cc3ccc(OC)c(OC)c3)n2C)n(CCCF)c1=O | ≥ 1000 nM | 16.3 ± 2.8 nM |
| C#CCn1c(=O)c2c(nc(C#Cc3ccc(OC)c(OC)c3)n2CC#C)n(CC)c1=O | > 1000 nM | 132 ± 60 nM |

| SMILES | Ki (Rat A1 AR) | Ki (Rat A2A AR) |
| --- | --- | --- |
| C#CCn1c(=O)c2c(nc(C#Cc3ccoc3)n2C)n(CC)c1=O | > 1000 nM | 220 ± 21 nM |
| C#CCn1c(=O)c2c(nc(C#Cc3ccc(OC)c(OC)c3)n2C)n(CCNC)c1=O | ≥ 1000 nM | 134 ± 16 nM |
| C#CCn1c(=O)c2c(nc(C#Cc3cccc(OC)c3)n2C)n(CCC2OCCO2)c1=O | ≥ 1000 nM | 120 ± 18 nM |
| C#CCn1c(=O)c2c(nc(C#Cc3ccccc3)n2C)n(C)c1=O [drawing 452] | > 1000 nM | 186 ± 60 nM |
| C#CCn1c(=O)c2c(nc(C#Cc3cccc(OC)c3)n2C)n(C)c1=O [drawing 456] | > 10000 nM | 30.9 ± 8 nM |
| C#CCn1c(=O)c2c(nc(C#Cc3ccc(OC)c(OC)c3)n2C)n(C)c1=O [drawing 458] | > 10000 nM | 32.7 ± 6.1 nM |
| C#CCn1c(=O)c2c(nc(C#Cc3cccc(C)c3)n2C)n(C)c1=O [drawing 460] | > 10000 nM | 43.4 ± 11.6 nM |
| C#CCn1c(=O)c2c(nc(C#Cc3cccc(Cl)c3)n2C)n(C)c1=O [drawing 461] | > 10000 nM | 46 ± 9 nM |
| C#CCn1c(=O)c2c(nc(C#Cc3cccc(Br)c3)n2C)n(C)c1=O [drawing 462] | ≥ 10000 nM | 151 ± 19 nM |
| C#CCn1c(=O)c2c(nc(C#Cc3cccc(OC)c3)n2CC#C)n(C)c1=O [drawing 467] | ≥ 10000 nM | 90 ± 35.7 nM |
| C#CCn1c(=O)c2c(nc(C#Cc3cccc(OCCCO)c3)n2C)n(C)c1=O [drawing 468] | ≥ 10000 nM | 211 ± 46 nM |
| C#CCn1c(=O)c2c(nc(C#Cc3cccc(OCCO)c3)n2C)n(C)c1=O [drawing 469] | ≥ 10000 nM | 117 ± 25 nM |
| C#CCn1c(=O)c2c(nc(C#Cc3cccc(OCCCN(C)C)c3)n2C)n(C)c1=O [drawing 470] | 186 ± 3 nM | 40 ± 1 nM |
| C#CCn1c(=O)c2c(nc(C#Cc3cccc(OCCOC)c3)n2C)n(C)c1=O [drawing 471] | ≥ 10000 nM | 219 ± 52 nM |
| C#CCn1c(=O)c2c(nc(C#Cc3cccc(OC(C)=O)c3)n2C)n(C)c1=O [drawing 472] | 1170 ± 731 nM | 140 ± 12 nM |
| C#CCn1c(=O)c2c(nc(C#Cc3cccc(OCCN(C)C)c3)n2C)n(C)c1=O [drawing 473] | 194 ± 33 nM | 49 ± 5 nM |
| C#CCn1c(=O)c2c(nc(C#Cc3cccc(O)c3)n2C)n(C)c1=O [drawing 475] | 425 ± 99 nM | 173 ± 35 nM |
| C#CCn1c(=O)c2c(nc(C#Cc3ccc4c(c3)OCO4)n2C)n(C)c1=O [drawing 476] | > 10000 nM | 166 ± 34 nM |
